According to patent US9605026B2, “Hydrogen-bond surrogate peptides and peptidomimetics for p53 reactivation” (New York University, priority 2013, dated 2017):

System: p53-regulated genes (p21, miR-34a, miR-200c)
Assay: qPCR expression of p300, p53, p21, miR-34a, miR-200c in UMSCC47 cells
Type: cell-based, human
Details: UMSCC47, 10 μM, 24 hours, vs control
Source text: FIG. 5A is an schematic illustration showing that CH1 has two distinct target sites. HIF1-α/p300 structures were used as guides to design helix mimetics that target site A and site B on the CH1 domain of p300. […] CH1iA (SEQ ID NO: 7) and CH1iB (SEQ ID NO: 8) were designed to mimic two helices from the C-terminal domain of HIF-1α. The peptides were locked into the helical conformation by the hydrogen bond surrogate method. FIG. 5C is a graph of p53 activity. UMSCC47 (left) and UMSCC74A (right) cells were co-transfected with a p53 Firefly luciferase reporter plasmid and a control Renilla luciferase plasmid. After 24 hours, cells were treated with control (vehicle), CH1iA (10 μM), or CH1iB (10 μM) for 24 hours. Firefly luciferase activity was normalized to Renilla luciferase activity to control for transfection efficiency. Data is normalized to control and presented as mean±SEM. *P<0.05, n=3. […] UMSCC47 (top panel) and UMSCC74A (bottom panel) cells were treated with control (vehicle), CH1iA (10 μM), or CH1iB (10 μM) for 24 hours. mRNA expression was determined using qPCR with validated TaqMan assays. […]
FIG. 6A is a western blot showing total and acetylated p53 levels. […] UMSCC47 cells were treated with control (vehicle), CH1iB (10 μM), cis-platinum (10 μM), or CH1iB (10 μM) and cis-platinum (10 μM) for 24 hours. mRNA expression was determined using qPCR with validated TaqMan assays. […]

XELA*RALDQ-NH2 (ELXRALDQ; HBS: 4-pentenoic acid, N-allylalanine; C-terminal amide; CH1iB) [X 4-pentenoic acid, A* N-allylalanine]
p21, miR-34a, and miR-200c expression: modest but significant increase
